“And” between values parts separate entries of the source, which are not always exact repeats. Equal entries are not always repeated.
Experiments:
[1] = target: T1, JAK3: Recombinant human kinase domain (Homo sapiens, UniProt P52333); assay: Determination of IC50 of Janus Kinase (JAK) inhibition, radioactive end-point 33P-ATP assay, JAK3; assay type: biochemical; details: ATP 1.5 uM, peptide 50 uM, 20 minutes, read-out: JAK3-INHIB-DR/v1~NO ADDITIVE~Enzyme_Conc = 100
T1 construct: JAK3: Recombinant human kinase domain from Millipore (Cat #14-629) or prepared; purchased Millipore 14-629

[2] = target: T2, recombinant human SYK360-635 (Homo sapiens, UniProt P43405); assay: Determination of IC50 of Spleen Tyrosine Kinase (SYK) inhibition, 33P ATP filtration assay; assay type: biochemical; details: SYK aa 360-635 0.5 nM; ATP 20 μM, peptide 5 μM, 0.1% BSA; read-out: SYK_ENZYME_FILTRATION/v1, BSA
T2 construct: made in house

T1 sequence (P52333 822-1111 limits assumed): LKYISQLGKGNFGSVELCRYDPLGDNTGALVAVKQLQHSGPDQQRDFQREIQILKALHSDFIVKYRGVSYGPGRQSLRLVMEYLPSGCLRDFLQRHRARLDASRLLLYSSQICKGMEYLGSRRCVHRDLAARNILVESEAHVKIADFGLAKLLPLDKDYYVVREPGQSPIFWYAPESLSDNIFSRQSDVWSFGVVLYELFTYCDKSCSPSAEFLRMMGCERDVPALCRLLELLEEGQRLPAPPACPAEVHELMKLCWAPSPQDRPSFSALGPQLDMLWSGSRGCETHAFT

Compound	IC50 [1]	IC50 [2]
C[C@@H](CC#N)NC(=O)c1c[nH]c2ncc(-c3nn(C)c4cc(Cl)ccc34)nc12 [Example I-142, 2-(6-Chloro-1-methyl-1H-indazol-3-yl)-5H-pyrrolo[2,3-b]pyrazine-7-carboxylic acid ((S)-2-cyano-1-methyl-ethyl)-amide]	8.04 nM	20.5 nM
Cn1nc(-c2cnc3[nH]cc(C(=O)NCCN)c3n2)c2ccc(Cl)cc21 [Example I-143, 2-(6-Chloro-1-methyl-1H-indazol-3-yl)-5H-pyrrolo[2,3-b]pyrazine-7-carboxylic acid (2-amino-ethyl)-amide]	> 1000 nM and 536 nM	54.9 nM
Cn1nc(-c2cnc3[nH]cc(C(=O)N[C@H]4CC[C@H](O)CC4)c3n2)c2ccc(Cl)cc21 [Example I-144, 2-(6-Chloro-1-methyl-1H-indazol-3-yl)-5H-pyrrolo[2,3-b]pyrazine-7-carboxylic acid (trans-4-hydroxy-cyclohexyl)-amide]	13.1 nM	37.1 nM
Cn1nc(-c2cnc3[nH]cc(C(=O)N[C@H]4CC[C@@H](N)CC4)c3n2)c2ccc(Cl)cc21 [Example I-145, 2-(6-Chloro-1-methyl-1H-indazol-3-yl)-5H-pyrrolo[2,3-b]pyrazine-7-carboxylic acid (cis-4-amino-cyclohexyl)-amide]	17.4 nM	1.9 nM
Cn1nc(-c2cnc3[nH]cc(C(=O)N[C@H]4CC[C@H](N)CC4)c3n2)c2ccc(Cl)cc21 [Example I-146, 2-(6-Chloro-1-methyl-1H-indazol-3-yl)-5H-pyrrolo[2,3-b]pyrazine-7-carboxylic acid (trans-4-amino-cyclohexyl)-amide]	18.3 nM	8.65 nM
CC(Cc1ccccc1)NC(=O)c1c[nH]c2ncc(-c3nn(C)c4cc(Cl)ccc34)nc12 (centres unmarked) [Example I-150, 2-(6-Chloro-1-methyl-1H-indazol-3-yl)-5H-pyrrolo[2,3-b]pyrazine-7-carboxylic acid (1-methyl-2-phenyl-ethyl)-amide]	22.5 nM	1540 nM
Cn1nc(-c2cnc3[nH]cc(C(=O)N[C@@H]4CC[C@H](O)C4)c3n2)c2ccc(Cl)cc21 [Example I-151, 2-(6-Chloro-1-methyl-1H-indazol-3-yl)-5H-pyrrolo[2,3-b]pyrazine-7-carboxylic acid ((1R,3S)-3-hydroxy-cyclopentyl)-amide]	3.47 nM	23.1 nM
CC(NC(=O)c1c[nH]c2ncc(-c3nn(C)c4cc(Cl)ccc34)nc12)C1CCCO1 (centres unmarked) [Example I-154, 2-(6-Chloro-1-methyl-1H-indazol-3-yl)-5H-pyrrolo[2,3-b]pyrazine-7-carboxylic acid [1-(tetrahydro-furan-2-yl)-ethyl]-amide]	4.95 nM	47.3 nM
Cn1nc(-c2cnc3[nH]cc(C(=O)N[C@@H]4CCc5ccccc54)c3n2)c2ccc(Cl)cc21 [Example I-157, 2-(6-Chloro-1-methyl-1H-indazol-3-yl)-5H-pyrrolo[2,3-b]pyrazine-7-carboxylic acid (R)-indan-1-ylamide]	71.6 nM	413 nM
Cn1nc(-c2cnc3[nH]cc(C(=O)N[C@H]4CC[C@@H](O)CC4)c3n2)c2ccc(Cl)cc21 [Example I-158, 2-(6-Chloro-1-methyl-1H-indazol-3-yl)-5H-pyrrolo[2,3-b]pyrazine-7-carboxylic acid (cis-4-hydroxy-cyclohexyl)-amide]	2.02 nM	9.7 nM
COC[C@@H](C)NC(=O)c1c[nH]c2ncc(-c3nn(C)c4cc(Cl)ccc34)nc12 [Example I-159, 2-(6-Chloro-1-methyl-1H-indazol-3-yl)-5H-pyrrolo[2,3-b]pyrazine-7-carboxylic acid ((R)-2-methoxy-1-methyl-ethyl)-amide]	5.83 nM	66.5 nM
CC(NC(=O)c1c[nH]c2ncc(-c3nn(C)c4cc(Cl)ccc34)nc12)C(F)(F)F (centres unmarked) [Example I-160, 2-(6-Chloro-1-methyl-1H-indazol-3-yl)-5H-pyrrolo[2,3-b]pyrazine-7-carboxylic acid (2,2,2-trifluoro-1-methyl-ethyl)-amide]	19.4 nM	37.3 nM
CC[C@H](CO)NC(=O)c1c[nH]c2ncc(-c3nn(C)c4cc(Cl)ccc34)nc12 [Example I-161, 2-(6-Chloro-1-methyl-1H-indazol-3-yl)-5H-pyrrolo[2,3-b]pyrazine-7-carboxylic acid ((R)-1-hydroxymethyl-propyl)-amide]	16.3 nM	17.3 nM
CC(CCCC(C)(C)O)NC(=O)c1c[nH]c2ncc(-c3nn(C)c4cc(Cl)ccc34)nc12 (centres unmarked) [Example I-163, 2-(6-Chloro-1-methyl-1H-indazol-3-yl)-5H-pyrrolo[2,3-b]pyrazine-7-carboxylic acid (5-hydroxy-1,5-dimethyl-hexyl)-amide]	80.7 nM	356 nM
COC[C@H](C)NC(=O)c1c[nH]c2ncc(-c3nn(C)c4cc(Cl)ccc34)nc12 [Example I-165, 2-(6-Chloro-1-methyl-1H-indazol-3-yl)-5H-pyrrolo[2,3-b]pyrazine-7-carboxylic acid ((S)-2-methoxy-1-methyl-ethyl)-amide]	1.14 nM	17 nM
Cn1nc(-c2cnc3[nH]cc(C(=O)N[C@@H]4CCCN(CC(F)(F)F)C4)c3n2)c2ccc(Cl)cc21 [Example I-168, 2-(6-Chloro-1-methyl-1H-indazol-3-yl)-5H-pyrrolo[2,3-b]pyrazine-7-carboxylic acid [(R)-1-(2,2,2-trifluoro-ethyl)-piperidin-3-yl]-amide]	118 nM	3710 nM
Cn1nc(-c2cnc3[nH]cc(C(=O)NC4CCCC(N)C4)c3n2)c2ccc(Cl)cc21 (centres unmarked) [Example I-169, 2-(6-Chloro-1-methyl-1H-indazol-3-yl)-5H-pyrrolo[2,3-b]pyrazine-7-carboxylic acid (3-amino-cyclohexyl)-amide]	391 nM	12 nM
CC(O)C(C)NC(=O)c1c[nH]c2ncc(-c3nn(C)c4cc(Cl)ccc34)nc12 (centres unmarked) [Example I-172, 2-(6-Chloro-1-methyl-1H-indazol-3-yl)-5H-pyrrolo[2,3-b]pyrazine-7-carboxylic acid (2-hydroxy-1-methyl-propyl)-amide]	4.65 nM	13.5 nM
COC[C@@H](NC(=O)c1c[nH]c2ncc(-c3nn(C)c4cc(F)ccc34)nc12)[C@@H](C)O [Example I-177, 2-(6-Fluoro-1-methyl-1H-indazol-3-yl)-5H-pyrrolo[2,3-b]pyrazine-7-carboxylic acid ((1R,2R)-2-hydroxy-1-methoxymethyl-propyl)-amide]	80.9 nM	704 nM
CC[C@H](C)NC(=O)c1c[nH]c2ncc(-c3nn(C)c4cc(F)ccc34)nc12 [Example I-178, 2-(6-Fluoro-1-methyl-1H-indazol-3-yl)-5H-pyrrolo[2,3-b]pyrazine-7-carboxylic acid ((S)-sec-butyl)-amide]	1.9 nM	4.6 nM
COC[C@H](CC(C)C)NC(=O)c1c[nH]c2ncc(-c3nn(C)c4cc(F)ccc34)nc12 [Example I-179, 2-(6-Fluoro-1-methyl-1H-indazol-3-yl)-5H-pyrrolo[2,3-b]pyrazine-7-carboxylic acid ((S)-1-methoxymethyl-3-methyl-butyl)-amide]	5.91 nM	149 nM
CC(CC(C)(C)O)NC(=O)c1c[nH]c2ncc(-c3nn(C)c4cc(F)ccc34)nc12 (centres unmarked) [Example I-183, 2-(6-Fluoro-1-methyl-1H-indazol-3-yl)-5H-pyrrolo[2,3-b]pyrazine-7-carboxylic acid (3-hydroxy-1,3-dimethyl-butyl)-amide]	80 nM	161 nM
CCCC(C)NC(=O)c1c[nH]c2ncc(-c3nn(C)c4cc(F)ccc34)nc12 (centres unmarked) [Example I-184, 2-(6-Fluoro-1-methyl-1H-indazol-3-yl)-5H-pyrrolo[2,3-b]pyrazine-7-carboxylic acid (1-methyl-butyl)-amide]	4.96 nM	37.2 nM
COC[C@@H](NC(=O)c1c[nH]c2ncc(-c3nn(C)c4cc(F)ccc34)nc12)[C@H](C)O [Example I-188, 2-(6-Fluoro-1-methyl-1H-indazol-3-yl)-5H-pyrrolo[2,3-b]pyrazine-7-carboxylic acid ((1R,2S)-2-hydroxy-1-methoxymethyl-propyl)-amide]	31.7 nM	168 nM
COC[C@@H](NC(=O)c1c[nH]c2ncc(-c3nn(C)c4cc(F)ccc34)nc12)[C@H](C)OC [Example I-189, 2-(6-Fluoro-1-methyl-1H-indazol-3-yl)-5H-pyrrolo[2,3-b]pyrazine-7-carboxylic acid ((1R,2S)-2-methoxy-1-methoxymethyl-propyl)-amide]	18.5 nM	248 nM
Cn1nc(-c2cnc3[nH]cc(C(=O)NC(CO)C4CCCO4)c3n2)c2ccc(F)cc21 (centres unmarked) [Example I-190, 2-(6-Fluoro-1-methyl-1H-indazol-3-yl)-5H-pyrrolo[2,3-b]pyrazine-7-carboxylic acid [2-hydroxy-1-(tetrahydro-furan-2-yl)-ethyl]-amide]	141 nM	127 nM
COC[C@H](CCS(C)(=O)=O)NC(=O)c1c[nH]c2ncc(-c3nn(C)c4cc(F)ccc34)nc12 [Example I-192, 2-(6-Fluoro-1-methyl-1H-indazol-3-yl)-5H-pyrrolo[2,3-b]pyrazine-7-carboxylic acid ((S)-3-methanesulfonyl-1-methoxymethyl-propyl)-amide]	1.88 nM	135 nM
C[C@@H](COC(F)F)NC(=O)c1c[nH]c2ncc(-c3nn(C)c4cc(F)ccc34)nc12 [Example I-193, 2-(6-Fluoro-1-methyl-1H-indazol-3-yl)-5H-pyrrolo[2,3-b]pyrazine-7-carboxylic acid ((S)-2-difluoromethoxy-1-methyl-ethyl)-amide]	0.795 nM	140 nM

Reference: US8658646B2, “Pyrrolopyrazine kinase inhibitors” (Hoffmann-LaRoche Inc., priority 2011, dated 2014)
